Data from patent US10076481B2, “Compositions for treating periodontitis and dental calculus accumulation” (The Research Foundation for the State University of New York, priority 2016, dated 2018).

What was measured:
Type in all cases: cell-based
[1] = tested on: human salivary sediment; experiment: pH response of salivary sediment incubated with individual amino acids, with or without 28 mM urea; settings: 37° C.
Description: (§1) To obtain human salivary sediment for performance of the experiments described herein, paraffin wax (4.02 g) was chewed by human subjects (including some subjects 70+ years of age, where oral alkalinity is commonly more prevalent) to stimulate the flow of saliva. Prior to the experiment, the subjects fasted for 12 hours and abstained from oral hygiene for at least 24 hours (to enable spontaneous dental plaque bacterial growth and buildup on their teeth and other oral surfaces (Kleinberg. I., 1967, Arch. Oral Biol., 1457-1473)). As a result of this process, oral bacteria were dislodged by the inert paraffin wax from the teeth and oral soft tissue surfaces in the mouths of the human subjects. About 40 ml of whole saliva was then collected from each subject by expectoration into a 50 ml polypropylene centrifuge tube chilled by surrounding it with cracked ice (Korayem, M. R., Traudt, M., and Kleinberg, I., 1990; Sandham, H. J. and Kleinberg, I., 1973).
(§2) The saliva collected was centrifuged at 1740 g in an International Equipment Company clinical centrifuge (Needham Heights, Mass.) for 15 min. at 4° C. The supernatant was decanted and discarded. To wash the remaining bacterial sediment, 40 ml of ice-cold distilled water was added and mixed in a vortex mixer. The resulting sediment-water mixture was centrifuged at 1740 g for 15 min. at 4° C. The supernatant was again decanted and discarded. This bacterial sediment washing procedure was repeated twice. To the washed bacterial sediment, 10 ml of deionized water was added and the composition was then mixed briefly and thoroughly in a vortex mixer. The sediment was transferred to a 15 ml polypropylene centrifuge tube. The resulting suspension was centrifuged at 1740 g for 15 min. at 4° C. and the resulting supernatant was aspirated and discarded.
To the packed 1.0 ml of salivary sediment obtained after centrifugation, 1.0 ml of deionized water was added to make a 50% salivary sediment suspension for the preparation of the following standard incubation mixtures: salivary sediment at 16.7% (v/v), with and without added individual amino acids: serine, glycine, alanine, valine, and/or histidine, etc. at either a 90 or 120 mM concentration; and leucine, isoleucine, aspartic acid, glutamine, cysteine, cystine, lysine, arginine, tyrosine, phenylalanine, threonine, proline, methionine, tyrosine, glutamine, and/or asparagine, each at 9 mM. These mixtures were each prepared in the presence or absence of 28 mM urea, which has a relatively high pH.
The initial pH of the incubation mixtures was carefully adjusted to or near 7.0 with either 1.0 M NaOH or 1.0 M HCl. Each bacterial mixture was then incubated overnight in a water bath at 37° C. The pH of each mixture was then determined using a combined pH and reference electrode (Radiometer Analytical SAS, Villeurbanne, France) at pre-determined time intervals.

[2] = tested on: human salivary sediment; experiment: pH response of salivary sediment when initial pH was not adjusted to neutrality
Description: Separately, incubation mixtures containing salivary sediment at 16.7% (v/v), 238 mM serine, and 6 mM sodium phytate, with or without 6.7 mM urea, were prepared and incubated without adjusting the initial pH to or near 7.0, except for salivary sediment mixed with deionized water, which was adjusted to pH 8.10 with 1 M NaOH. Determination of the pH of each of these experimental entities were carried out at pre-determined time intervals (i.e., at 0 min., 15 min., 30 min., 1 h, 2 h, 3 h, 4 h, and 21 h) with a pH meter (Radiometer Copenhagen, type PHM26, Radiometer America, Westlake, Ohio) and a combination pH electrode (Radiometer Analytical, Cedex, France).

[3] = tested on: human salivary sediment; experiment: pH response of salivary sediment with serine, with or without sodium phytate and 6.7 mM urea
Description: as §1, §2
Separately, incubation mixtures containing salivary sediment at 16.7% (v/v) and 6.7 or 8.3 mM serine in the presence or absence of 6.7 mM urea, 20 or 25 mM serine and/or 3 mM sodium phytate (Sigma-Aldrich, St. Louis, Mo.), both in the presence or absence of 6.7 mM urea were prepared. Mixtures were incubated overnight at 37° C. in a water bath incubator (Kleinberg, I. and Hall, G., 1968; Salako, N. O. and Kleinberg, I., 1989), after adjusting the initial pH to or near 7.0 with 1N NaOH or 1N HCl.
Separately, incubation mixtures containing salivary sediment at 16.7% (v/v), 20 or 25 mM serine, and 6 mM sodium phytate were prepared in the presence or absence of 6.7 mM urea. Mixtures were incubated overnight at 37° C. in a water bath incubator, after adjusting the initial pH to or near 7.0 with 1N NaOH or 1N HCl. […]

[4] = 90 mM amino acid + 28 mM urea, 21 hours
[5] = 120 mM amino acid + 28 mM urea, 21 hours
[6] = 9 mM amino acid + 28 mM urea, 4 hours
[7] = 9 mM amino acid + 28 mM urea, 21 hours (overnight)
[8] = 9 mM amino acid, without urea, 4 hours
[9] = 9 mM amino acid, without urea, 21 hours (overnight)
[10] = 90 mM amino acid + 28 mM urea, 4 hours
[11] = 120 mM amino acid + 28 mM urea, 4 hours

SMILES | pH of salivary sediment [1, 6] | pH of salivary sediment [1, 7] | pH of salivary sediment [1, 8] | pH of salivary sediment [1, 9] | also measured
N[C@@H](Cc1c[nH]cn1)C(=O)O [histidine] | – | – | – | – | pH of salivary sediment [1, 4]: 8.30; pH of salivary sediment [1, 5]: 8.22
O=C(O)[C@@H]1CCCN1 [proline] | 9.00 | 8.80 | 6.10 | remained about unchanged | –
N[C@@H](CSSC[C@H](N)C(=O)O)C(=O)O [cystine] | 8.80 | 8.50 | – | 6.35 | –
NC(=O)C[C@H](N)C(=O)O [asparagine] | 8.90 | 8.70 | 6.55 | 7.35 | –
NCCCC[C@H](N)C(=O)O [lysine] | – | 8.70 | – | remained at neutrality | –
N[C@@H](Cc1c[nH]c2ccccc12)C(=O)O [tryptophan] | 9.00 | 8.90 | – | 6.20 | –
N[C@@H](CC(=O)O)C(=O)O [aspartic acid] | 8.90 | 8.60 | – | 7.00 | –
N[C@@H](Cc1ccc(O)cc1)C(=O)O [tyrosine] | 8.87 | 8.62 | – | – | –
NC(=O)CC[C@H](N)C(=O)O [glutamine] | 9.00 | 8.80 | 5.95 | 6.25 | –
C[C@@H](O)[C@H](N)C(=O)O [threonine] | 8.90 | 8.60 | 6.20 | remained about unchanged | –
N=C(N)NCCC[C@H](N)C(=O)O [arginine] | – | 8.80 | – | 7.97 | –
CC(C)C[C@H](N)C(=O)O [leucine] | 8.85 | 8.60 | 6.15 | 6.40 | –
CSCC[C@H](N)C(=O)O [methionine] | 9.00 | 8.90 | – | 6.20 | –
N[C@@H](Cc1ccccc1)C(=O)O [phenylalanine] | 8.87 | 8.65 | – | – | –
NC(N)=O [urea] | – | – | – | – | pH of salivary sediment ([1]; 28 mM urea alone, 4 hours): about 9.0; pH of salivary sediment ([1]; 28 mM urea alone, 21 hours): 8.8
CC(C)[C@H](N)C(=O)O [valine] | – | – | – | – | pH of salivary sediment [1, 10]: 8.90; pH of salivary sediment [1, 4]: 8.85; pH of salivary sediment [1, 11]: 8.80; pH of salivary sediment [1, 5]: 8.70
N[C@@H](CCC(=O)O)C(=O)O [glutamic acid] | 8.90 | 8.50 | – | 6.70 | –
NCC(=O)O [glycine] | – | – | – | – | pH of salivary sediment [1, 10]: 8.72; pH of salivary sediment [1, 4]: 8.65; pH of salivary sediment [1, 11]: 8.90; pH of salivary sediment [1, 5]: 8.55
C[C@H](N)C(=O)O [alanine] | – | – | – | – | pH of salivary sediment [1, 10]: 8.82; pH of salivary sediment [1, 4]: 8.80; pH of salivary sediment [1, 11]: 8.72; pH of salivary sediment [1, 5]: 8.67
CC[C@H](C)[C@H](N)C(=O)O [isoleucine] | 8.90 | 8.65 | 6.40 | 6.62 | –
N[C@@H](CO)C(=O)O [serine] | – | – | – | – | initial pH of incubation mixture ([2]; absence of urea, initial pH not adjusted): 8.10; pH of incubation mixture ([2]; absence of urea, initial pH not adjusted, 21 hours): 6.50; initial pH of incubation mixture ([2]; with urea, initial pH not adjusted to 7.00): 8.10; pH of incubation mixture ([2]; with urea, initial pH not adjusted, end of the incubation): 6.85; pH of salivary sediment ([3]; 6.70 mM serine + 6.70 mM urea, 21 hours): 7.60; pH of salivary sediment ([3]; 6.70 mM serine, without urea, 4 hours): 5.95; pH of salivary sediment ([3]; 6.70 mM serine, without urea, 21 hours): 6.30; pH of salivary sediment ([3]; 8.30 mM serine + 6.70 mM urea, 21 hours): 7.50; pH of salivary sediment ([3]; 8.30 mM serine, without urea, 4 hours): 5.90; pH of salivary sediment ([3]; 8.30 mM serine, without urea, 21 hours): 6.25; pH of salivary sediment ([3]; 20 mM serine, absence of urea, 4 hours (FIG. 16, 6 mM sodium phytate series)): 7.15; pH of salivary sediment ([3]; 20 mM serine, absence of urea, 4 hours, initial pH 6.90 (FIG. 15, 3 mM sodium phytate series)): 6.20; pH of salivary sediment ([3]; 20 mM serine, absence of urea, 21 hours (FIG. 15, 3 mM sodium phytate series)): 6.65; pH of salivary sediment ([3]; 20 mM serine, absence of urea, 21 hours (FIG. 16, 6 mM sodium phytate series)): 6.47; pH of salivary sediment ([3]; 25 mM serine, absence of urea, 4 hours (FIG. 16, 6 mM sodium phytate series)): 6.17; pH of salivary sediment ([3]; 25 mM serine, absence of urea, 4 hours, initial pH 7.00 (FIG. 15, 3 mM sodium phytate series)): 6.17; pH of salivary sediment ([3]; 25 mM serine, absence of urea, 21 hours (FIG. 15, 3 mM sodium phytate series)): 6.70; pH of salivary sediment ([3]; 25 mM serine, absence of urea, 21 hours (FIG. 16, 6 mM sodium phytate series)): 6.45; pH of salivary sediment [1, 10]: 8.22; pH of salivary sediment [1, 11]: 8.30
N[C@@H](CS)C(=O)O [cysteine] | 8.75 | 8.55 | 6.35 | 6.60 | –
